Measurements: patent US20110178171A1, “COMPOUNDS FOR CANCER THERAPY” (China Medical University, priority 2010, published 2011)
pIC50: −log10 of the molar value.

What was measured:
LNCaP cells [1] = assay: MTT growth inhibition assay, LNCaP; conditions: for pIC50: LNCaP, androgen-dependent prostate adenocarcinoma
Experimental: (§1) The LNCaP (androgen-sensitive), PC3 (androgen in-dependent), human prostate cancer and normal human fibroblast 3T3 were obtained from American Type Culture Collection (Manassas, Va.) were maintained with RPMI 1640 medium containing 10% FBS and […] each of penicillin and streptomycin at […] in a humidified atmosphere with 5% CO2.
(§2) The viability of the cells after treated with various chemicals was evaluated using MTT assay preformed in triplicate (Mosmann T. 1983. Rapid colorimetric assay for cellular growth and survival: application to proliferation and cytotoxicity assays”. Journal of immunological methods. 65 (1-2): 55-63). Briefly, the cancer cells (5×10^3) were incubated in 96-well plates containing […] of the culture medium. Cells were permitted to adhere for 12-18 h then washed with phosphate buffered saline (PBS). Solutions were always prepared fresh by dissolving 0.2% DMSO or K8 in culture medium and added to various kind of tumor. After 48 h of exposure, K8 containing medium was removed, washed with PBS and replaced by fresh medium. The cells in each well were then incubated in culture medium with […] MTT for 4 h. After the medium were removed, […] of DMSO and […] of glycine buffer (0.1 M glycine, 0.1 M NaCl, pH 10.5) were added to each well. Absorbance at 570 nm of the maximum was detected by a PowerWave X Microplate ELISA Reader (Bio-TeK Instruments, Winoski, Vt.). The absorbance for DMSO treated cells was considered as 100%. The results were determined by three independent experiments.
Cytotoxicity of K8 (Isochaihulactone) on LNCaP cells was examined in the manner described above. The cells were treated with KS (Isochaihulactone), its Z-form, or its E-form of different concentrations ranging from 2.5 to 20 μM for 24 h.
Cytotoxicities of Z-K8 (Isochaihulactone) on LNCaP (AR-dependent), and PC3 (AR-independent) tumor cell line were examined in the manner described above. The cells were treated with the Z- or E-form K8 (Isochaihulactone) of different concentrations ranging from 0.3125 to 5 μM for 24 h.

PC3 cells = assay: MTT growth inhibition assay, PC3; format: cell-based, human; conditions: PC3, androgen-independent prostate adenocarcinoma
Experimental: as §1, §2
Cytotoxicities of Z-K8 (Isochaihulactone) on LNCaP (AR-dependent), and PC3 (AR-independent) tumor cell line were examined in the manner described above. […]

[2] = tested on: lung cancer cell line A549; assay: MTT growth inhibition assay, A549; format: cell-based, human; conditions: A549, lung adenocarcinoma
Experimental: (§3) The results were determined by three independent experiments.
(§4) Besides, the above assay was also conducted on gastric cancer cell line NCI-N87, liver cancer cell line HepG2 and J5, lung cancer cell line A549, and oral cancer cell line OECM-1.

[3] = tested on: oral cancer cell line OECM-1; assay: MTT growth inhibition assay, OECM-1; format: cell-based; conditions: OECM-1, oral squamous cell carcinoma
Experimental: as §3, §4

LNCaP xenografts = assay: Antitumor activity in vivo, LNCaP xenograft; design: species or system mice; conditions: for Tumor growth volume (mm^3): 30 mg/kg s.c. days 0-4
Experimental: Xenograft mice as a model system to study cytotoxicity effect of isochaihulactone in vivo: the implantation of cancer cells (LNCaP) were carried out similarly to previous reports. Female congenital athymic BALB/c nude (nu/nu) mice were purchased from National Sciences Council (Taipei, Taiwan) and all procedures were performed in compliance with the standard operating procedures of the Laboratory Animal Center of China Medical University (Taichung, Taiwan). All experiments were carried out using 6-8-week old mice weighing 18-22 g. The animals were s.c. implanted with 1×10^7 cell sinto the back of mice. When the tumor reached 80-120 mm3 in volume, animals were divided randomly into control and test groups consisting of six mice per group (day 0). Daily s.c. administration of z-K8, dissolved in a vehicle of 20% Tween 80 in normal saline (v/v) was performed from days 0 to 4 far from the inoculated tumor sites (>1.5 cm). The control group was treated with vehicle only. The mice were weighed three times a week up to days 21-28 to monitor the effects and the same time the tumor volume was determined by measurement of the length (L) and width (W) of the tumor. The tumor volume at day n (TVn) was calculated as TV (mm3)=(L×W^2)/2. The relative tumor volume at day n (RTVn) versus day 0 was expressed according to the following formula: RTVn=TVn/TV0. Tumor regression (T/C(%)) in treated versus control mice was calculated using: T/C(%)=(mean RTV of treated group)/(mean RTV of control group)×100. Xenograft tumors as well as other vital organs of treated and control. The results are shown in Tables 6 and 7 and FIGS. 6 and 7.
(§5) Assays were carried out to examine the inhibition of human xenografts growth in vivo by isochaihulactone. Briefly, LNCaP tumor-bearing mice were administered s.c. with vehicle control, 30 mg/kg E-K8, and Z-K8 respectively on days 0-4 for 5 days. The volumes of the tumors were measured. […] Scale bars, […]. Data represent means W S.D. of tumor volume at each time
as §5, with “Z-K8. Again,” for “isochaihulactone. Briefly,”, “Z-K8 15” for “30”, “mg/kg” for “mg/kg E-K8, and Z-K8 respectively”, “time point.” for “time”

[4] = tested on: liver cancer cell line HepG2; assay: MTT growth inhibition assay, HepG2; format: cell-based; conditions: HepG2, hepatocarcinoma
Experimental: as §3, §4

[5] = tested on: liver cancer cell line J5; assay: MTT growth inhibition assay, J5; format: cell-based; conditions: J5, hepatocarcinoma
Experimental: as §3, §4

LNCaP cells [6] = assay: Cell cycle analysis by flow cytometry; format: cell-based, human; conditions: 20 nM
Experimental: The cell cycle was determined by flow cytometry with DNA staining to reveal the total amount of DNA. Approximately 5×10^5 of cells were incubated in various concentration of isochaihulactone for the indicated time. Cells were harvested by treating the cells with trypsin/EDTA. The cells were collected, washed with PBS, fixed with cold 70% ethanol overnight, and then stained with a solution containing […] PI, 10 mg/ml RNase A, and 0.1% Triton X-100 for 1 h in the dark. The cells will then pass through FACScan flow cytometer (equipped with a 488-nmargon laser) to measure the DNA content. The data was obtained and analyzed with CellQuest 3.0.1 (Becton Dickinson, Franklin Lakes, N.J.) and ModFitLT V2.0 software. The results are shown Table 4 and FIG. 4.
Assays were carried out to examine the effect of Z-K8 in inducing G2/M phase arrest and apoptosis in LNCaP cells. Briefly, the cells were treated with different concentrations of Z-K8 (ranging from 0.25 to 2 μM) for 24 h. The cell cycle analysis was done according to the method described above. As shown in FIG. 4 and Table 4, Z-K8 induced cell cycle G2/M arrest in LNCaP cells.

**Q.** With `COc1cc(/C=C2/C(=O)OCC2Cc2ccc3c(c2)OCO3)cc(OC)c1OC` (racemic) [E-K8] as the molecule, how does the “Viability (%)” value (LNCaP cells [1]; 2.5 µM) read?
**A.** The value was 86.2%.

**Q.** And the “Viability (%)” value (LNCaP cells [1]; 5 µM)?
**A.** Its value is 72.9%.

**Q.** And the “Viability (%)” value (LNCaP cells [1]; 10 µM)?
**A.** The value was 69.8%.

**Q.** And the “Viability (%)” value (LNCaP cells [1]; 20 µM)?
**A.** Its value is 65.3%.

**Q.** And the pIC50 (LNCaP cells [1])?
**A.** Its pIC50 is less than 4.70.

**Q.** And the pIC50 (PC3 cells)?
**A.** The pIC50 was less than 4.70.

**Q.** And the pIC50 [2]?
**A.** The pIC50 was less than 4.00.

**Q.** What about the pIC50 [3] of the same molecule?
**A.** The pIC50 was less than 6.00.

**Q.** And the “Tumor growth volume (mm^3)” value (LNCaP xenografts; day 1 after administration)?
**A.** Its value is 0 mm^3.

**Q.** What about the “Tumor growth volume (mm^3)” value (LNCaP xenografts; day 4 after administration) of the same molecule?
**A.** Its value is 118.0 mm^3.

**Q.** What about the “Tumor growth volume (mm^3)” value (LNCaP xenografts; day 7 after administration) of the same molecule?
**A.** The value was 137.1 mm^3.

**Q.** What about the “Tumor growth volume (mm^3)” value (LNCaP xenografts; day 10 after administration) of the same molecule?
**A.** Its value is 205.7 mm^3.

**Q.** What about the “Tumor growth volume (mm^3)” value (LNCaP xenografts; day 13 after administration) of the same molecule?
**A.** Its value is 313.7 mm^3.

**Q.** What about the “Tumor growth volume (mm^3)” value (LNCaP xenografts; day 16 after administration) of the same molecule?
**A.** Its value is 427.4 mm^3.

**Q.** And the “Tumor growth volume (mm^3)” value (LNCaP xenografts; day 19 after administration)?
**A.** Its value is 504.7 mm^3.

**Q.** What about the “Tumor growth volume (mm^3)” value (LNCaP xenografts; day 22 after administration) of the same molecule?
**A.** Its value is 633.5 mm^3.

**Q.** And the “Tumor growth volume (mm^3)” value (LNCaP xenografts; day 25 after administration)?
**A.** The value was 658.6 mm^3.

**Q.** What about the “Tumor growth volume (mm^3)” value (LNCaP xenografts; day 28 after administration) of the same molecule?
**A.** The value was 834.9 mm^3.

**Q.** And the “Tumor growth volume (mm^3)” value (LNCaP xenografts; day 31 after administration)?
**A.** The value was 894.9 mm^3.

**Q.** And the “tumor growth inhibition, in words” value (LNCaP xenografts; LNCaP tumor-bearing mice, 30 mg/kg s.c. days 0-4 (FIG. 6))?
**A.** Its value is “tumor growth inhibition effect”.

**Q.** For `COc1cc(/C=C2\C(=O)OC[C@@H]2Cc2ccc3c(c2)OCO3)cc(OC)c1OC` [K8, isochaihulactone], which “Viability (%)” value (LNCaP cells [1]; 2.5 µM) is on record?
**A.** Its value is 67.4%.

**Q.** What about the “Viability (%)” value (LNCaP cells [1]; 5 µM) of the same molecule?
**A.** The value was 43.6%.

**Q.** And the “Viability (%)” value (LNCaP cells [1]; 10 µM)?
**A.** Its value is 40.9%.

**Q.** What about the “Viability (%)” value (LNCaP cells [1]; 20 µM) of the same molecule?
**A.** The value was 21.0%.

**Q.** And the pIC50 (LNCaP cells [1])?
**A.** Its pIC50 is 5.37.

**Q.** What about the pIC50 (PC3 cells) of the same molecule?
**A.** The pIC50 was less than 4.00.

**Q.** What about the pIC50 [4] of the same molecule?
**A.** The pIC50 was less than 4.70.

**Q.** And the pIC50 [5]?
**A.** The pIC50 was 4.67.

**Q.** And the pIC50 [2]?
**A.** The pIC50 was 4.73.

**Q.** What does the source list for `CC(=O)O[C@H]1C(=O)[C@@]2(C)[C@H]([C@H](OC(=O)c3ccccc3)[C@]3(O)C[C@H](OC(=O)[C@H](O)[C@@H](NC(=O)c4ccccc4)c4ccccc4)C(C)=C1C3(C)C)[C@]1(OC(C)=O)CO[C@@H]1C[C@@H]2O` [toxal, reference compound]?
**A.** Cells in phase (%) G0/G1 (LNCaP cells [6]): 16.40%; Cells in phase (%) G2/M (LNCaP cells [6]): 40.23%; Cells in phase (%) S (LNCaP cells [6]): 3.95%; Cells in phase (%) Sub-G1 (LNCaP cells [6]): 11.43%
